Test system: 556581-035-R-J1 tumor spheroid viability, % test/control
Test: Anticancer human tumor 556581-035-R-J1 patient-derived ovarian carcinoma cell line growth inhibition
Settings: spheroids with HUVEC and MSC; for IC50: curve of first compound; for viability, T/C: stronger effect = lower value
Procedure, shortened: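 Complex spheroids of malignant cells with endothelial cells and mesenchymal stem cells; agents alone or combined, from near clinical Cmax (or 10 microM if unknown) down in half-log steps, 0.25% DMSO final.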

[1] = second compound 30 pM, first compound 0.0316 µM
[2] = second compound 30 pM, first compound 0.1 µM
[3] = second compound 30 pM, first compound 0.316 µM
[4] = second compound 30 pM, first compound 1 µM
[5] = second compound 30 pM, first compound 3.16 µM
[6] = second compound 30 pM, first compound 10 µM
[7] = second compound 94.9 pM, first compound 0.0316 µM
[8] = second compound 94.9 pM, first compound 0.1 µM
[9] = second compound 94.9 pM, first compound 0.316 µM
[10] = second compound 94.9 pM, first compound 1 µM
[11] = second compound 94.9 pM, first compound 3.16 µM
[12] = second compound 94.9 pM, first compound 10 µM
[13] = second compound 0.0003 µM, first compound 0.0316 µM
[14] = second compound 0.0003 µM, first compound 0.1 µM
[15] = second compound 0.0003 µM, first compound 0.316 µM
[16] = second compound 0.0003 µM, first compound 1 µM
[17] = second compound 0.0003 µM, first compound 3.16 µM
[18] = second compound 0.0003 µM, first compound 10 µM
[19] = second compound 0.000949 µM, first compound 0.0316 µM
[20] = second compound 0.000949 µM, first compound 0.1 µM
[21] = second compound 0.000949 µM, first compound 0.316 µM
[22] = second compound 0.000949 µM, first compound 1 µM
[23] = second compound 0.000949 µM, first compound 3.16 µM
[24] = second compound 0.000949 µM, first compound 10 µM
[25] = second compound 0.003 µM, first compound 0.0316 µM
[26] = second compound 0.003 µM, first compound 0.1 µM
[27] = second compound 0.003 µM, first compound 0.316 µM
[28] = second compound 0.003 µM, first compound 1 µM
[29] = second compound 0.003 µM, first compound 3.16 µM
[30] = second compound 0.003 µM, first compound 10 µM
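Also: spheroids exposed to compounds for 7 days before viability read.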

| Compound | IC50 (second compound 30 pM) [µM] | IC50 (second compound 94.9 pM) [µM] | IC50 (second compound 0.0003 µM) [µM] | IC50 (second compound 0.000949 µM) [µM] | IC50 (second compound 0.003 µM) [µM] | viability, T/C [1] [%] | viability, T/C [2] [%] | viability, T/C [3] [%] | viability, T/C [4] [%] | viability, T/C [5] [%] | viability, T/C [6] [%] | viability, T/C [7] [%] | viability, T/C [8] [%] | viability, T/C [9] [%] | viability, T/C [10] [%] | viability, T/C [11] [%] | viability, T/C [12] [%] | viability, T/C [13] [%] | viability, T/C [14] [%] | viability, T/C [15] [%] | further results |
| --- | --- | --- | --- | --- | --- | --- | --- | --- | --- | --- | --- | --- | --- | --- | --- | --- | --- | --- | --- | --- | --- |
| CC(C)n1c(=O)n(C)c2cnc3cc(F)c(-c4ccc(OCCCN5CCCCC5)nc4)cc3c21 + COc1cc2c(cc1O)CCNC21CSC2c3c(OC(C)=O)c(C)c4c(c3C(COC1=O)N1C(O)C3Cc5cc(C)c(OC)c(O)c5C(C21)N3C)OCO4 | > 10 | > 10 | > 10 | < 0.0316 | < 0.0316 | 86.3 | 97.8 | 96.5 | 91 | 89.2 | 73.7 | 94.9 | 98 | 95.6 | 95.6 | 86 | 66.6 | 96.1 | 96.8 | 98.8 | viability, T/C [16]: 97.7%; viability, T/C [17]: 84.4%; viability, T/C [18]: 62.3%; viability, T/C [19]: 44.8%; viability, T/C [20]: 35%; viability, T/C [21]: 37.1%; viability, T/C [22]: 48.5%; viability, T/C [23]: 39.1%; viability, T/C [24]: 17.6%; viability, T/C [25]: 0.76%; viability, T/C [26]: 1.38%; viability, T/C [27]: 0.61%; viability, T/C [28]: 0.59%; viability, T/C [29]: 0.42%; viability, T/C [30]: 0.65% |
| CC1COCCN1c1cc(-c2ccnn2C)c2ccnc(-c3ccn[nH]3)c2n1 (stereo not given) + COc1cc2c(cc1O)CCNC21CSC2c3c(OC(C)=O)c(C)c4c(c3C(COC1=O)N1C(O)C3Cc5cc(C)c(OC)c(O)c5C(C21)N3C)OCO4 | 0.786 | 0.426 | 0.0592 | < 0.0316 | < 0.0316 | 93.9 | 74.6 | 59.1 | 48.5 | 38.2 | 34.4 | 73.7 | 62.5 | 51.8 | 44.2 | 38 | 34.4 | 53.6 | 45.7 | 43.1 | viability, T/C [16]: 43.8%; viability, T/C [17]: 37.6%; viability, T/C [18]: 32.3%; viability, T/C [19]: 7.45%; viability, T/C [20]: 4.92%; viability, T/C [21]: 5.53%; viability, T/C [22]: 6.39%; viability, T/C [23]: 3.31%; viability, T/C [24]: 0.59%; viability, T/C [25]: 0.82%; viability, T/C [26]: 0.83%; viability, T/C [27]: 1.19%; viability, T/C [28]: 0.43%; viability, T/C [29]: 0.43%; viability, T/C [30]: 0.72% |
| COc1cc(C)[nH]c(=O)c1CN1CCc2c(Cl)cc(C(OC)C3COC3)c(Cl)c2C1=O (stereo not given) + COc1cc2c(cc1O)CCNC21CSC2c3c(OC(C)=O)c(C)c4c(c3C(COC1=O)N1C(O)C3Cc5cc(C)c(OC)c(O)c5C(C21)N3C)OCO4 | > 10 | > 10 | > 10 | < 0.0316 | < 0.0316 | 106 | 108 | 105 | 115 | 116 | 113 | 103 | 101 | 108 | 111 | 108 | 110 | 92.4 | 95 | 100 | viability, T/C [16]: 101%; viability, T/C [17]: 98.2%; viability, T/C [18]: 93.7%; viability, T/C [19]: 44.6%; viability, T/C [20]: 46.5%; viability, T/C [21]: 41.4%; viability, T/C [22]: 36.7%; viability, T/C [23]: 32.1%; viability, T/C [24]: 17.6%; viability, T/C [25]: 0.61%; viability, T/C [26]: 0.67%; viability, T/C [27]: 2.15%; viability, T/C [28]: 0.7%; viability, T/C [29]: 0.66%; viability, T/C [30]: 1.02% |
| COc1ccc([C@@H](O)c2cc(-c3ncnc4cc(N5CCOCC5)ccc34)c(F)cc2Cl)nn1 + COc1cc2c(cc1O)CCNC21CSC2c3c(OC(C)=O)c(C)c4c(c3C(COC1=O)N1C(O)C3Cc5cc(C)c(OC)c(O)c5C(C21)N3C)OCO4 | 1.77 | 1.96 | 2.06 | < 0.0316 | < 0.0316 | 97.4 | 102 | 88.2 | 60.5 | 40.1 | 32.8 | 104 | 102 | 90.5 | 61.6 | 42.7 | 32.3 | 99.5 | 104 | 86.8 | viability, T/C [16]: 67.8%; viability, T/C [17]: 40%; viability, T/C [18]: 22.4%; viability, T/C [19]: 42.1%; viability, T/C [20]: 36.5%; viability, T/C [21]: 12.3%; viability, T/C [22]: 0.69%; viability, T/C [23]: 0.37%; viability, T/C [24]: 1.03%; viability, T/C [25]: 0.59%; viability, T/C [26]: 0.87%; viability, T/C [27]: 0.65%; viability, T/C [28]: 0.7%; viability, T/C [29]: 0.82%; viability, T/C [30]: 0.98% |
| Cc1cc(C)c(CNC(=O)c2cc(-c3ccc(CN4CCOCC4)cc3)cc3c2cnn3C2CCCC2)c(=O)[nH]1 + COc1cc2c(cc1O)CCNC21CSC2c3c(OC(C)=O)c(C)c4c(c3C(COC1=O)N1C(O)C3Cc5cc(C)c(OC)c(O)c5C(C21)N3C)OCO4 | > 10 | > 10 | > 10 | < 0.0316 | < 0.0316 | 100 | 108 | 105 | 117 | 112 | 97.5 | 109 | 108 | 110 | 109 | 110 | 88.3 | 99.9 | 100 | 103 | viability, T/C [16]: 103%; viability, T/C [17]: 98.4%; viability, T/C [18]: 88.3%; viability, T/C [19]: 45.2%; viability, T/C [20]: 43.5%; viability, T/C [21]: 46%; viability, T/C [22]: 30.7%; viability, T/C [23]: 24.5%; viability, T/C [24]: 11.6%; viability, T/C [25]: 1.01%; viability, T/C [26]: 0.92%; viability, T/C [27]: 0.9%; viability, T/C [28]: 0.75%; viability, T/C [29]: 0.82%; viability, T/C [30]: 1.15% |
| [2H]c1nc(C)nc([2H])c1-c1cc(NC[C@@H](C)c2cccc3c(C(=O)NC)ccnc23)ncn1 + COc1cc2c(cc1O)CCNC21CSC2c3c(OC(C)=O)c(C)c4c(c3C(COC1=O)N1C(O)C3Cc5cc(C)c(OC)c(O)c5C(C21)N3C)OCO4 | > 10 | > 10 | > 10 | < 0.0316 | < 0.0316 | 105 | 119 | 116 | 120 | 110 | 116 | 113 | 118 | 108 | 113 | 118 | 125 | 101 | 110 | 102 | viability, T/C [16]: 104%; viability, T/C [17]: 108%; viability, T/C [18]: 109%; viability, T/C [19]: 40.9%; viability, T/C [20]: 46.4%; viability, T/C [21]: 42.9%; viability, T/C [22]: 46.3%; viability, T/C [23]: 33.9%; viability, T/C [24]: 31.1%; viability, T/C [25]: 1.6%; viability, T/C [26]: 0.73%; viability, T/C [27]: 0.75%; viability, T/C [28]: 0.97%; viability, T/C [29]: 1.05%; viability, T/C [30]: 1.32% |

From PubChem BioAssay AID1845199 (Molecular Pharmacology Branch, DTP, NCI, 2023)
